Records with an inconclusive call do not appear.
Test system: D54 LucT luciferase reporter counterscreen, luminescence, 24 h
Assay: luciferase activators in glycosylation-insensitive reporter cells, dose response, counter-screen for N-linked glycosylation inhibitor project, D54 LucT cells, luminescence, cherry pick (AID 624404)

| Structure (SMILES) | AC35 [nM] |
| --- | --- |
| CNC(=O)c1cccn(Cc2cccc(C(F)(F)F)c2)c1=O | 231 |
| Oc1[nH]c(N=C2N=c3ccccc3=N2)c2ccccc12 | 17.2 |
| COC(=O)/C=C1\C(=O)N(c2nc3ccccc3s2)C(=S)N1c1ccc(F)cc1 | 14.9 |
| Cc1ccc2[nH]c(=O)c3cc(C(=O)NC(C)C)sc3c2c1 | 2390 |
| COc1ccc(C(=O)c2sc(Nc3ccccc3)nc2N)cc1 | 645 |
| COc1ccc(OC)c(Nc2nc(-c3c(C)nc4ncccn34)cs2)c1 | 1100 |
| Cn1c(=O)n(C)c2cc(NS(=O)(=O)c3ccc4c(c3)CCCC4)ccc21 | 416 |
| CN(C)CCNc1cccc2sc3ccc(O)cc3c(=O)c12 | 1980 |
| COc1ccc(NC2=C(C)C(=O)CC2)cc1 | 380 |
| COc1ccc2nc3ccccc3nc2c1NC(=O)c1ccccc1Cl | 17900 |
| COc1ccc(C2(CNC(=O)c3cc(OC)c(OC)c(OC)c3)CCCC2)cc1OC | 3410 |
| Cc1ccc(N=Nc2c(N)nn(-c3ccccc3)c2N)cc1 | 56.1 |
| COc1cc(F)ccc1-c1csc(C(NC(C)=O)c2ccccc2)n1 (centres undefined) | 243 |
| O=C(Nc1cc(Cl)ccc1N1CCOCC1)c1ccc(N2CCCC2=O)cc1 | 212 |
| Cc1nc(N=C(N)N)nc2c(C)cccc12 | 3820 |
| O=C(COc1ccccc1)Nc1cccc(-c2cn3cccnc3n2)c1 | 1080 |
| CC12CC[C@H]3[C@@H](CCC4(O)C[C@H](O)CCC34/C=N/NC(=O)c3ccccc3[N+](=O)[O-])C1(O)CCC2C1=CC(=O)OC1 (some centres undefined) | 4030 |
| OC1CCCN(Cc2ccc3ccc4cccc5ccc2c3c45)C1 (centres undefined) | 890 |
| Cc1ccc2c(c1)C(=O)N1[C@H]3c4cc(Cl)ccc4OC[C@@H]3[C@H](c3ccccc3)[C@]1(C)C(=O)N2 | 650 |
| Cc1ccc2nc(SCC(=O)Nc3ccc4sc(C)nc4c3)c(C#N)cc2c1 | 4.83 |
| OCCCNc1c2ccccc2nc2ccccc12 | 4900 |
| CC(Nc1nc(-c2ccccc2)nc2ccccc12)c1ccccc1 (centres undefined) | 379 |
| COc1ccc(CNC(=O)C/C(C)=N/NC(=O)COc2ccc(C)cc2Br)cc1 | 3090 |
| CC#CC#Cc1cccc(=O)o1 | 407 |
| C[C@@]12C(=O)Nc3cc(F)ccc3C(=O)N1[C@H]1c3ccccc3OC[C@@H]1[C@@H]2c1ccccc1 | 1510 |
| Cc1ccc2nsnc2c1NC(=O)c1ccc([N+](=O)[O-])o1 | 571 |
| COc1cc(NC(=O)c2ccc(-c3c(C)noc3C)c3ccoc23)cc(OC)c1OC | 58.2 |

| Structure (SMILES) | AC35 [nM] |
| --- | --- |
| COC1C(O)C(C)OC(OC2C(Oc3cccc4c(O)c5c(=O)oc6ccc(C)c7c(=O)oc(c34)c5c67)OC(C)C(O)C2O)C1O (centres undefined) | 376 |
| Cc1cc(C)c2c(N)c3cccc(C)c3nc2n1 | 5820 |
| CSc1nnc(-c2sccc2OCc2ccccc2)n1C | 929 |
| CCc1ccc(/C=N/NC(=O)c2nnn(-c3nonc3N)c2C(C)C)cc1 | 2630 |
| COc1ccc(CNCC(=O)Nc2ccccc2-n2cccc2)cc1 | 62.9 |
| CC(C)CCNC(=O)CCCOc1cc(=O)n(C)c2ccccc12 | 2260 |
| COc1ccc(OC)c2nc3c(C(=O)NCCN(C)C)cccc3nc12 | 384 |
| COc1cc2c(cc1OC)CN(c1ccc(-c3ccccc3OC)nn1)CC2 | 7870 |
| O=C1Cc2c([nH]c3ccc([N+](=O)[O-])cc23)-c2ccccc2N1 | 894 |
| O=C(Nc1c(Cl)ccc2nsnc12)c1ccc([N+](=O)[O-])o1 | 778 |
| O=C1Cc2c([nH]c3ccc(Br)cc23)-c2ccccc2N1 | 2.52 |
| COc1ccc([C@@H]2[C@@H]3C(=O)N(C(C)(C)C)C(=O)[C@@H]3[C@]3(Cc4ccccc4)C(=O)N(c4cccc(C)c4)C(=O)N23)cc1 | 843 |
| COc1ccc(Nc2oc(-c3ccc(Cl)cc3)nc2C#N)cc1 | 202 |
| Nc1nc(-c2ccccc2)cc(-c2ccccc2O)n1 | 1760 |
| COc1ccc(CC(=O)Nc2ccc(-c3ccc4nnc(C)n4n3)cc2)cc1OC | 1800 |
| O=C(Nc1ncccc1O)c1ccc(C(=O)c2ccccc2)cc1 | 773 |
| O=C(N/N=C/c1ccco1)c1ccccc1OCc1ccccc1Cl | 1110 |
| Cc1ccc(S(=O)(=O)c2cc3c(=O)n4ccccc4nc3n(CCc3ccccc3)c2=N)cc1 | 75.9 |
| CC(C)n1cc(NC(=O)c2cc(-c3ccccc3)on2)cn1 | 568 |
| O=C(NCCN1C(=O)S/C(=C\c2ccccc2Cl)C1=O)C1=COCCO1 | 4980 |
| CC1CN(C(=O)c2cc(-c3ccc(Cl)s3)nc3ccccc23)CC(C)O1 (centres undefined) | 3320 |
| COc1ccc2oc(-c3ccccc3[N+](=O)[O-])cc(=O)c2c1 | 174 |
| COc1ccc2[nH]c(C(=O)N3CCN(Cc4ccccc4)CC3)cc2c1OC | 2980 |
| O=C(C[C@H]1C/C=C\C[C@H](Cc2ccc(F)cc2)C(=O)O[C@@H](c2ccccc2)CNC1=O)N[C@@H](CO)Cc1ccccc1 | 575 |
| COc1cc(C(=O)Nc2ccc3c(c2)nc(C)n3C)cc(OC)c1OC | 1130 |
| COc1cc2c(cc1OC)C(=O)N1[C@H]3c4cc(Cl)ccc4OC[C@@H]3[C@H](c3ccccc3)[C@]1(C)C(=O)N2 | 449 |
| COc1ccc(NC(=O)C2Cc3c(-c4cccc(NC(C)=O)c4)ccnc3O2)cc1 (centres undefined) | 18.9 |

| Structure (SMILES) | AC35 [nM] |
| --- | --- |
| Cn1c(=O)c2cc(NC(=O)CCc3ccccc3)ccc2n1-c1ccccc1F | 2980 |
| CC(C)(C)S(=O)(=O)N1C[C@H]2CC/C=C\C/C(c3ccccc3)=C\2[C@@H]1CCO | 536 |
| COc1cc2c(cc1OC)C(c1cccs1)N(C(=S)NC(C)C)CC2 (centres undefined) | 85.1 |
| CCOc1ccc2[nH]c(C(=O)N/N=C/c3cc(OC)c(OC)c(OC)c3)cc2c1 | 3270 |
| CCOc1cc(C)nc(NCc2ccccc2)n1 | 5190 |
| COc1cc(-c2nccc3cc4c(cc23)OCO4)cc(OC)c1OC | 61.7 |
| CCOC(=O)c1cnc2c(ccc3ccccc32)c1NCCCN(C)C | 515 |
| CCOc1ccc(C(=O)n2cc(C(=O)OC)c3ccccc32)cc1 | 6030 |
| COc1ccc2c(c1)OC[C@H]1[C@H]2N2C(=O)c3ccc(F)cc3NC(=O)[C@@]2(C)[C@H]1c1ccccc1 | 1070 |
| O=C(CNC(=O)c1ccc(Br)o1)Nc1cccc(-c2cnc3ccccc3n2)c1 | 3530 |
| COc1cc2[nH]c(C(=O)Nc3ccc(F)cc3)cc2c(OC)c1OC | 98.2 |
| CCC(C)[C@H](NC(=O)N1CC(=O)Nc2ccccc21)C(=O)Nc1ccccc1C (some centres undefined) | 2750 |
| COc1cc(-c2[nH]ncc2CN2CCSCC2)cc(OC)c1OC | 3500 |
| CC(C)/C=C1\CC/C(=C\c2cccnc2)C1=O | 9160 |
| CC(C)(C)c1ccc(C(=O)NNC(=O)c2cccc(Br)c2)cc1 | 5040 |
| C[C@@]12C(=O)Nc3cc(F)c(F)cc3C(=O)N1[C@H]1c3ccccc3OC[C@@H]1[C@@H]2c1ccccc1 | 746 |
| COc1ccc(Cl)cc1S(=O)(=O)Nc1ccc2c(c1)n(C)c(=O)n2C | 535 |
| CSc1ncnc2c1ncn2CCCN[C@H](C)c1cccc2ccccc12 | 527 |
| COc1ccccc1/C=N/NC(=O)c1cc2c(OC)c(OC)ccc2[nH]1 | 987 |
| Cc1ccc(-c2nc3ncccc3o2)cc1NC(=O)c1ccc([N+](=O)[O-])o1 | 505 |
| c1ccc2c(c1)C1=NCCN1c1ccccc1-2 | 6250 |
| C/C(=N\O)C(=O)C(CN1CCCCC1)CN1CCCCC1 | 1210 |
| O=C1N[C@H]2CC=C[C@H]2N(Cc2cccs2)c2ccccc21 | 199 |
| COc1ccccc1N1CCN(c2ccc3c(c2)S(=O)(=O)c2cccc(C(=O)NCC4CC4)c2C3=O)CC1 | 1190 |
| O=C(N/N=C/c1ccc2c(c1)OCO2)C1COc2ccccc2O1 (centres undefined) | 187 |

Source: PubChem BioAssay AID624404 (Broad Institute, 2012)
